Common to all, as to assay type: cell-based, Hepatitis C virus
In experiment [1] the test system is HCV genotype 1a H77 strain subgenomic luciferase replicon. Nature of the experiment: HCV replicon assay, genotype 1a. The settings on record: Hepatitis C virus, read-out: 1a IC50 (nM), HCV genotype 1a. In outline:
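Replicon-bearing Huh-7 cells (1×10^4 H1a-luc or 7.5×10^3 Zluc per well) dosed 3 h after plating with ten 5-fold compound dilutions, 72 h at 37 °C/5% CO2. Luciferase measured by ONE-glo luminescence; EC50 from dose-response fits, replicon-free Huh-7 as negative control.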

Experiment [2] deals with HCV 1aY93H mutant replicon. Nature of the experiment: HCV replicon assay, genotype 1a Y93H mutant. The note with it: Hepatitis C virus, read-out: 1aY93H IC50 (nM), HCV genotype 1a, Y93H mutant. In outline:
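Huh7.5 cells were electroporated with luciferase-bearing HCV genotype 1a Y93H mutant replicon RNA. Cells were treated 4 h after seeding with ten 1:5 serial compound dilutions and incubated for 4 days at 37° C. Replication was read out as luciferase luminescence, and EC50 was derived from dose-response curves.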

Experiment [3] relates to HCV genotype 1b Con1 strain subgenomic luciferase replicon. Nature of the experiment: HCV replicon assay, genotype 1b. The settings on record: Hepatitis C virus. The protocol: The HCV luciferase replicon assay measures the ability of a test compound to inhibit HCV replication in cell culture after 3 days of treatment in a human hepatoma cell line (Huh-7) bearing an HCV replicon containing a luciferase-neomycin phosphotransferase fusion gene. The inhibition of HCV replication was measured by quantification of luciferase protein expression. Briefly, Huh-7 cells containing either the HCV genotype 1a H77 strain or genotype 1b Con1 strain subgenomic luciferase replicon (H1a-luc or Zluc, respectively) were grown in DMEM containing glucose, L-glutamine and sodium pyruvate, 10% fetal bovine serum (FBS), 100 IU/mL penicillin, 100 μg/mL streptomycin, 2 mM GlutaMAX, non-essential amino acids and 0.25 (H1a-luc) or 0.5 (Zluc) mg/mL G418. GlutaMAX was obtained from Invitrogen, Corp.; all other media reagents were obtained from Mediatech, Inc. For dose-response testing, the cells were seeded in 96-well plates at 1×10^4 (H1a-luc) or 7.5×10^3 (Zluc) cells/well in a volume of 50 μL, and incubated at 37° C./5% CO2. Three hours after plating, 50 μL of ten 5-fold serial dilutions of compound were added, and cell cultures were incubated at 37° C./5% CO2 for 72 hours. In all cases, Huh-7 cells lacking the HCV replicon served as negative control. To assess luciferase expression, the media/compound was removed from the plates and ONE-glo Luciferase assay reagent (Promega) was added to each well. The assay plates were shaken for 3 minutes at room temperature and luciferase activity for each well was measured with a 1 sec read time on the Victor^3V multilabel counter using a 700 nm cut-off filter (Perkin Elmer). EC50 values were calculated from dose response curves from the resulting best-fit equations determined by Microsoft Excel and XLfit 4.1 software.

A further experiment relates to HCV 2b. Nature of the experiment: HCV replicon assay, genotype 2b. The settings on record: Hepatitis C virus, read-out: 2b IC50 (nM), HCV genotype 2b.
The subject of experiment [4] is HCV genotype 3a NS5A within the 1b-replicon. The experiment can be described thus: HCV replicon assay, genotype 3a (NS5A intergenotypic stable cell line). The settings on record: Hepatitis C virus, read-out: 3a IC50 (nM), HCV genotype 3a. In outline: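 Stable Huh7 line carrying a genotype 1b luciferase replicon with genotype 3a NS5A substituted. Cells were treated 72 h at 37 °C with ten 5-fold compound dilutions. Luciferase signal quantified replication; EC50 from dose-response curve fits.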

Regarding `COC(=O)N[C@H](C(=O)N1C[C@H](F)C[C@H]1c1ncc(-c2ccc3c(F)c4oc5ccc(-c6cnc([C@@H]7C[C@@H](F)CN7C(=O)[C@@H](NC(=O)OC)C(C)C)[nH]6)cc5c(=O)c4cc3c2)[nH]1)C(C)C` [Compound 29, methyl [(1S)-1-({(2S,4R)-4-fluoro-2-[5-(6-fluoro-9-{2-[(2S,4R)-4-fluoro-1-{(2S)-2-[(methoxycarbonyl)amino]-3-methylbutanoyl}pyrrolidin-2-yl]-1H-imidazol-5-yl}-12-oxo-12H-benzo[b]xanthen-2-yl)-1H-imidazol-2-yl]pyrrolidin-1-yl}carbonyl)-2-methylpropyl]carbamate], the 50% inhibitory concentration (IC50) in experiment [1] was ≥ 1 nM; in experiment [2], ≥ 100 nM; in experiment [3], 1 nM; with HCV 2b it was ≥ 100 nM; in experiment [4], ≥ 1 nM.
For the compound `COC(=O)N[C@H](C(=O)N1CCC[C@H]1c1ncc(-c2ccc3c(ccc4oc5cc(-c6cnc([C@@H]7CCCN7C(=O)[C@@H](NC(=O)OC)C(C)C)[nH]6)ccc5c(=O)c43)c2)[nH]1)C(C)C` [Compound 33, methyl [(1S)-1-({(2S)-2-[5-(9-{2-[(2S)-1-{(2S)-2-[(methoxycarbonyl)amino]-3-methylbutanoyl}pyrrolidin-2-yl]-1H-imidazol-5-yl}-12-oxo-12H-benzo[a]xanthen-3-yl)-1H-imidazol-2-yl]pyrrolidin-1-yl}carbonyl)-2-methylpropyl]carbamate], the IC50 was 0.003 nM in experiment [1]; 18.4 nM in experiment [2]; 0.00333 nM in experiment [3]; 14.1 nM in the experiment on HCV 2b; ≥ 1 nM in experiment [4].
